{"source": "ChEMBL document CHEMBL3526135", "about": "“Induction of xenobiotic receptors, transporters, and drug metabolizing enzymes by oxycodone” (Drug Metab Dispos, 2013)", "format_in_all_cases": "ADME, organism-based", "set-up_in_all_cases": "dose 15 mg/kg, route intraperitoneal", "key": {"Abca8b": {"tested_on": "Abca8b", "assay": "Effect on Abca8b mRNA expression in Sprague-Dawley rat liver at 15 mg/kg, ip administered twice daily every 12 hrs for 8 days by microarray analysis relative to control", "conditions": "read-out: FC; call rule not given here"}, "Slc27a5": {"tested_on": "Slc27a5", "assay": "Effect on Slc27a5 mRNA expression in Sprague-Dawley rat liver at 15 mg/kg, ip administered twice daily every 12 hrs for 8 days by microarray analysis relative to control", "conditions": "read-out: FC"}, "Ces2": {"tested_on": "Ces2", "assay": "Effect on Ces2 mRNA expression in Sprague-Dawley rat liver at 15 mg/kg, ip administered twice daily every 12 hrs for 8 days by microarray analysis relative to control", "conditions": "read-out: FC"}, "Slc38a4": {"tested_on": "Slc38a4", "assay": "Effect on Slc38a4 mRNA expression in Sprague-Dawley rat liver at 15 mg/kg, ip administered twice daily every 12 hrs for 8 days by microarray analysis relative to control", "conditions": "read-out: FC"}, "Rattus norvegicus [1]": {"tested_on": "Rattus norvegicus", "assay": "Effect on CYP2b2 mRNA expression in Sprague-Dawley rat liver at 15 mg/kg, ip administered twice daily every 12 hrs for 8 days by qRT-PCR analysis relative to control", "conditions": "in vivo"}, "Rattus norvegicus [2]": {"tested_on": "Rattus norvegicus", "assay": "Effect on Ces2 mRNA expression in Sprague-Dawley rat liver at 15 mg/kg, ip administered twice daily every 12 hrs for 8 days by qRT-PCR analysis relative to control", "conditions": "in vivo"}, "Rattus norvegicus [3]": {"tested_on": "Rattus norvegicus", "assay": "Effect on Slco1a4 mRNA expression in Sprague-Dawley rat liver at 15 mg/kg, ip administered twice daily every 12 hrs for 8 days by qRT-PCR analysis relative to control", "conditions": "in vivo"}, "FMO1": {"tested_on": "FMO1", "assay": "Effect on FMO1 mRNA expression in Sprague-Dawley rat liver at 15 mg/kg, ip administered twice daily every 12 hrs for 8 days by microarray analysis relative to control", "conditions": "read-out: FC"}, "Rattus norvegicus [4]": {"tested_on": "Rattus norvegicus", "assay": "Effect on Slc15a3 mRNA expression in Sprague-Dawley rat liver at 15 mg/kg, ip administered twice daily every 12 hrs for 8 days by qRT-PCR analysis relative to control", "conditions": "in vivo"}, "CYP4b1": {"tested_on": "CYP4b1", "assay": "Effect on CYP4b1 mRNA expression in Sprague-Dawley rat liver at 15 mg/kg, ip administered twice daily every 12 hrs for 8 days by microarray analysis relative to control", "conditions": "read-out: FC"}, "Abcb1a": {"tested_on": "Abcb1a", "assay": "Effect on Abcb1a mRNA expression in Sprague-Dawley rat liver at 15 mg/kg, ip administered twice daily every 12 hrs for 8 days by microarray analysis relative to control", "conditions": "read-out: FC"}, "NR1I3": {"tested_on": "NR1I3", "assay": "Effect on NR1I3 mRNA expression in Sprague-Dawley rat liver at 15 mg/kg, ip administered twice daily every 12 hrs for 8 days by microarray analysis relative to control", "conditions": "read-out: FC"}, "Slc37a4": {"tested_on": "Slc37a4", "assay": "Effect on Slc37a4 mRNA expression in Sprague-Dawley rat liver at 15 mg/kg, ip administered twice daily every 12 hrs for 8 days by microarray analysis relative to control", "conditions": "read-out: FC"}, "Slc39a4": {"tested_on": "Slc39a4", "assay": "Effect on Slc39a4 mRNA expression in Sprague-Dawley rat liver at 15 mg/kg, ip administered twice daily every 12 hrs for 8 days by microarray analysis relative to control", "conditions": "read-out: FC"}, "NR1I2": {"tested_on": "NR1I2", "assay": "Effect on NR1I2 mRNA expression in Sprague-Dawley rat liver at 15 mg/kg, ip administered twice daily every 12 hrs for 8 days by microarray analysis relative to control", "conditions": "read-out: FC"}, "Slc25a29": {"tested_on": "Slc25a29", "assay": "Effect on Slc25a29 mRNA expression in Sprague-Dawley rat liver at 15 mg/kg, ip administered twice daily every 12 hrs for 8 days by microarray analysis relative to control", "conditions": "read-out: FC"}, "CYP2a1": {"tested_on": "CYP2a1", "assay": "Effect on CYP2a1 mRNA expression in Sprague-Dawley rat liver at 15 mg/kg, ip administered twice daily every 12 hrs for 8 days by microarray analysis relative to control", "conditions": "read-out: FC"}, "Ugt1a1": {"tested_on": "Ugt1a1", "assay": "Effect on Ugt1a1 mRNA expression in Sprague-Dawley rat liver at 15 mg/kg, ip administered twice daily every 12 hrs for 8 days by microarray analysis relative to control", "conditions": "read-out: FC"}, "Abcg5": {"tested_on": "Abcg5", "assay": "Effect on Abcg5 mRNA expression in Sprague-Dawley rat liver at 15 mg/kg, ip administered twice daily every 12 hrs for 8 days by microarray analysis relative to control", "conditions": "read-out: FC"}, "Rattus norvegicus [5]": {"tested_on": "Rattus norvegicus", "assay": "Effect on AhR mRNA expression in Sprague-Dawley rat liver at 15 mg/kg, ip administered twice daily every 12 hrs for 8 days by qRT-PCR analysis relative to control", "conditions": "in vivo"}, "CYP4a10": {"tested_on": "CYP4a10", "assay": "Effect on CYP4a10 mRNA expression in Sprague-Dawley rat liver at 15 mg/kg, ip administered twice daily every 12 hrs for 8 days by microarray analysis relative to control", "conditions": "read-out: FC"}}, "data": [{"smiles": "COc1ccc2c3c1O[C@H]1C(=O)CC[C@@]4(O)[C@@H](C2)N(C)CC[C@]314.Cl", "note": "[OXYCODONE HYDROCHLORIDE]", "values": [{"measurement": "fold induction at 8 days", "setting": "Abca8b", "result": 2.3}, {"measurement": "fold induction at 8 days", "setting": "Slc27a5", "result": 1.6}, {"measurement": "fold induction at 8 days", "setting": "Ces2", "result": 2.8}, {"measurement": "fold induction at 8 days", "setting": "Slc38a4", "result": 1.8}, {"measurement": "Activity", "setting": "Rattus norvegicus [1]", "result": "Active"}, {"measurement": "Activity", "setting": "Rattus norvegicus [2]", "result": "Active"}, {"measurement": "Activity", "setting": "Rattus norvegicus [3]", "result": "Active"}, {"measurement": "fold induction at 8 days", "setting": "FMO1", "result": 3.7}, {"measurement": "Activity", "setting": "Rattus norvegicus [4]", "result": "Active"}, {"measurement": "fold induction at 8 days", "setting": "CYP4b1", "result": 1.9}, {"measurement": "fold induction at 8 days", "setting": "Abcb1a", "result": 2.8}, {"measurement": "fold induction at 8 days", "setting": "NR1I3", "result": 6.1}, {"measurement": "fold induction at 8 days", "setting": "Slc37a4", "result": 2}, {"measurement": "fold induction at 8 days", "setting": "Slc39a4", "result": 1.6}, {"measurement": "fold induction at 8 days", "setting": "NR1I2", "result": 2.9}, {"measurement": "fold induction at 8 days", "setting": "Slc25a29", "result": 1.5}, {"measurement": "fold induction at 8 days", "setting": "CYP2a1", "result": 1.7}, {"measurement": "fold induction at 8 days", "setting": "Ugt1a1", "result": 1.6}, {"measurement": "fold induction at 8 days", "setting": "Abcg5", "result": 3.6}, {"measurement": "Activity", "setting": "Rattus norvegicus [5]", "result": "Active"}, {"measurement": "fold induction at 8 days", "setting": "CYP4a10", "result": 2}]}]}
